According to US20240325353A1, “COMPOUND FOR TREATMENT OF COGNITIVE DISORDERS” (Syndesi Therapeutics SA, priority 2021, published 2024):

Tested on: brain activity (BOLD signal)
Test: pharmaco-MRI (BOLD) neuroimaging study in conscious rats
Format: in vivo, rat
Details: for median number of positive voxels (positive BOLD volume of activation): 20-30 min post injection
Description: Test Substance, Reference Substance(s), and Vehicle: the compound of example 1 test substance for dose-dependent change in BOLD signal was provided by Syndesi along with the formula for the vehicle.
Subjects: Forty-eight male Sprague Dawley rats weighing ca 275-300 g were obtained from Charles River Laboratories (Wilmington, MA, USA). Rat were maintained on a 12:12 hour light:dark cycle with a lights on at 0700 hours and allowed access to food and water ad libitum. All rats were acquired and cared for in accordance with the guidelines published in the Guide for the Care and Use of Laboratory Animals (National Institutes of Health Publications No. 85-23, Revised 1985) and adhered to the National Institutes of Health and the American Association for Laboratory Animal Science guidelines.
Acclimation: To reduce the stress associated with head restraint, rats were acclimated to the restraining system (head holder and body tube) one week prior to their actual imaging session. The design of the restraining system (Animal Imaging Research, Holden MA, USA) included a padded head support obviating the need for ear bars helping to reduce animal discomfort while minimizing motion artifact. These acclimation sessions were run each day for 4-5 consecutive days. Rats were briefly anesthetized with 2-3% isoflurane while being secured into the head holder. The forepaws were secured with tape. When fully conscious, the imaging system is placed into a black opaque box “mock scanner” for 30 min with a tape-recording of the MRI pulse sequence to simulate the bore of the magnet and the imaging protocol. A significant decline in respiration, heart rate, motor movements, and plasma corticosterone has been measured when the first and last acclimation periods are compared (King et al., 2005). The reduction in autonomic and somatic measures of arousal and stress improve the signal resolution and quality of the images.
Image Acquisition: Animals were scanned at 300 MHz using a quadrature transmit/receive volume coil built into the rat head holder and restraining system for awake animal imaging (Animal Imaging Research, Holden, MA, USA). The design of the coil provided complete coverage of the brain from olfactory bulbs to brain stem with excellent B1 field homogeneity. Experiments were conducted using a Bruker Biospec 7.0 T/20-cm USR horizontal magnet (Bruker, Billerica, MA, USA) and a 20-G/cm magnetic field gradient insert (ID=12 cm) capable of a 120-μs rise time. At the beginning of each imaging session, a high-resolution anatomical data set was collected using the RARE pulse sequence [22 slice; 1.0 mm; field of view (FOV) 3.0 cm; matrix size 256×256; repetition time (TR) 2.5 s; echo time (TE) 12 ms; NEX 2; 3 min acquisition time]. Functional images were acquired using a multi-slice half-Fourier acquisition single-shot turbo spin echo (HASTE) pulse sequence. Bruker Paravision automatically finds the basic frequency, shims, power requirements for 90° and 180° pulses and sets the receiver gain. A single scanning session acquired 22 slices, 1.0 mm thick, every 6.0 s (TR), using an effective TE of 48 ms, FOV 3.0 cm, matrix size 96×96, NEX 1, and repeated 450 times for a total scanning time of 45 min. The in-plane pixel resolution was 312 μm2.
Data Processing: Data are coregistered to a mean functional image using SPM8's coregistrational code with the following parameters: Quality: 0.97, Smoothing: 0.35 mm, Separation: 0.5 mm. Gaussian smoothing was performed with a FWHM of 0.8 mm. Images were aligned and registered to the 3D rat brain atlas, segmented and labeled with 171 discrete anatomical regions. The alignment process was facilitated by an interactive graphic user interface. The registration process involved translation, rotation and scaling independently and in all three dimensions. Matrices that transformed each subject's anatomy were used to embed each slice within the atlas. […]

O=C1C[C@H](c2cc(F)c(F)c(F)c2)CN1Cn1ncnc1Cl [compound of example 1, (4R)-1-[(5-chloro-1H-1,2,4-triazol-1-yl)methyl]-4-(3,4,5-trifluorophenyl)pyrrolidin-2-one]
median number of positive voxels (positive BOLD volume of activation) (lateral posterior thalamic nucleus, 0.1 mg/kg i.p.): 11 | median number of positive voxels (positive BOLD volume of activation) (lateral posterior thalamic nucleus, 0.3 mg/kg i.p.): 3 | median number of positive voxels (positive BOLD volume of activation) (lateral posterior thalamic nucleus, 1.0 mg/kg i.p.): 0 | median number of positive voxels (positive BOLD volume of activation) (lateral preoptic area, 0.1 mg/kg i.p.): 12 | median number of positive voxels (positive BOLD volume of activation) (lateral preoptic area, 0.3 mg/kg i.p.): 3 | median number of positive voxels (positive BOLD volume of activation) (lateral preoptic area, 1.0 mg/kg i.p.): 0 | median number of positive voxels (positive BOLD volume of activation) (lateral septal nucleus, 0.1 mg/kg i.p.): 34 | median number of positive voxels (positive BOLD volume of activation) (lateral septal nucleus, 0.3 mg/kg i.p.): 35 | median number of positive voxels (positive BOLD volume of activation) (lateral septal nucleus, 1.0 mg/kg i.p.): 4 | median number of positive voxels (positive BOLD volume of activation) (paraventricular nucleus (first entry, P 0.003), 0.1 mg/kg i.p.): 4 | median number of positive voxels (positive BOLD volume of activation) (paraventricular nucleus (first entry, P 0.003), 0.3 mg/kg i.p.): 5 | median number of positive voxels (positive BOLD volume of activation) (paraventricular nucleus (first entry, P 0.003), 1.0 mg/kg i.p.): 0 | median number of positive voxels (positive BOLD volume of activation) (prelimbic ctx, 0.1 mg/kg i.p.): 50 | median number of positive voxels (positive BOLD volume of activation) (prelimbic ctx, 0.3 mg/kg i.p.): 32 | median number of positive voxels (positive BOLD volume of activation) (prelimbic ctx, 1.0 mg/kg i.p.): 4 | median number of positive voxels (positive BOLD volume of activation) (reticular nucleus midbrain, 0.1 mg/kg i.p.): 19 | median number of positive voxels (positive BOLD volume of activation) (reticular nucleus midbrain, 0.3 mg/kg i.p.): 18 | median number of positive voxels (positive BOLD volume of activation) (reticular nucleus midbrain, 1.0 mg/kg i.p.): 1 | median number of positive voxels (positive BOLD volume of activation) (retrosplenial caudal ctx, 0.1 mg/kg i.p.): 43 | median number of positive voxels (positive BOLD volume of activation) (retrosplenial caudal ctx, 0.3 mg/kg i.p.): 27 | median number of positive voxels (positive BOLD volume of activation) (retrosplenial caudal ctx, 1.0 mg/kg i.p.): 0 | median number of positive voxels (positive BOLD volume of activation) (subiculum dorsal, 0.1 mg/kg i.p.): 13 | median number of positive voxels (positive BOLD volume of activation) (subiculum dorsal, 0.3 mg/kg i.p.): 12 | median number of positive voxels (positive BOLD volume of activation) (subiculum dorsal, 1.0 mg/kg i.p.): 0 | median number of positive voxels (positive BOLD volume of activation) (substantia nigra reticularis, 0.1 mg/kg i.p.): 19 | median number of positive voxels (positive BOLD volume of activation) (substantia nigra reticularis, 0.3 mg/kg i.p.): 22 | median number of positive voxels (positive BOLD volume of activation) (substantia nigra reticularis, 1.0 mg/kg i.p.): 2 | median number of positive voxels (positive BOLD volume of activation) (triangular septal nucleus, 0.1 mg/kg i.p.): 4 | median number of positive voxels (positive BOLD volume of activation) (triangular septal nucleus, 0.3 mg/kg i.p.): 1 | median number of positive voxels (positive BOLD volume of activation) (triangular septal nucleus, 1.0 mg/kg i.p.): 0 | brain areas significantly affected by the four treatments (vehicle, 0.1, 0.3, 1.0 mg/kg, of 171 brain regions): 71/171 | median number of positive voxels (positive BOLD volume of activation) (ventral lateral striatum, 0.1 mg/kg i.p.): 82 | median number of positive voxels (positive BOLD volume of activation) (ventral lateral striatum, 0.3 mg/kg i.p.): 1 | median number of positive voxels (positive BOLD volume of activation) (ventral lateral striatum, 1.0 mg/kg i.p.): 0 | median number of positive voxels (positive BOLD volume of activation) (ventral medial striatum, 0.1 mg/kg i.p.): 47 | median number of positive voxels (positive BOLD volume of activation) (ventral medial striatum, 0.3 mg/kg i.p.): 18 | median number of positive voxels (positive BOLD volume of activation) (ventral medial striatum, 1.0 mg/kg i.p.): 0 | median number of positive voxels (positive BOLD volume of activation) (ventral orbital ctx, 0.1 mg/kg i.p.): 19 | median number of positive voxels (positive BOLD volume of activation) (ventral orbital ctx, 0.3 mg/kg i.p.): 4 | median number of positive voxels (positive BOLD volume of activation) (ventral orbital ctx, 1.0 mg/kg i.p.): 1 | median number of positive voxels (positive BOLD volume of activation) (ventral subiculum, 0.1 mg/kg i.p.): 26 | median number of positive voxels (positive BOLD volume of activation) (ventral subiculum, 0.3 mg/kg i.p.): 25 | median number of positive voxels (positive BOLD volume of activation) (ventral subiculum, 1.0 mg/kg i.p.): 3 | median number of positive voxels (positive BOLD volume of activation) (ventral tegmental area, 0.1 mg/kg i.p.): 8 | median number of positive voxels (positive BOLD volume of activation) (ventral tegmental area, 0.3 mg/kg i.p.): 5 | median number of positive voxels (positive BOLD volume of activation) (ventral tegmental area, 1.0 mg/kg i.p.): 0 | median number of positive voxels (positive BOLD volume of activation) (visual 1 ctx, 0.1 mg/kg i.p.): 27 | median number of positive voxels (positive BOLD volume of activation) (visual 1 ctx, 0.3 mg/kg i.p.): 21 | median number of positive voxels (positive BOLD volume of activation) (visual 1 ctx, 1.0 mg/kg i.p.): 0 | median number of positive voxels (positive BOLD volume of activation) (zona incerta, 0.1 mg/kg i.p.): 9 | median number of positive voxels (positive BOLD volume of activation) (zona incerta, 0.3 mg/kg i.p.): 3 | median number of positive voxels (positive BOLD volume of activation) (zona incerta, 1.0 mg/kg i.p.): 0
